Measured values: paper PMC10920779, “Targeting P2Y14R protects against necroptosis of intestinal epithelial cells through PKA/CREB/RIPK1 axis in ulcerative colitis” (Nature Communications, 2024)
Where “and” joins values, the source holds several entries; their conditions need not be identical. Equal values may be shown once. Entries after “also recorded” stand apart in the source; their conditions may differ.

How the values were obtained:
HT-29 cells = test: TSZ-induced necroptosis in HT-29 cells (CCK8 viability, PI/Hoechst, H&E staining); format: cell-based, human
Experimental: Necroptosis was induced by pretreatment with TNF‐α (20 ng·mL^−1) plus z‐VAD‐fmk (20 μM) and Smac mimetic (BV6, 2 μM) for 8 h, then stained cells with hematoxylin/eosin. For PI/Hoechst staining, cells were stained with PI and Hoechst for 20 min, then photographed with a fluorescence microscope and at least 300 cells were counted. The ratio of PI positive cells (%) = (PI positive cells) / (Hoechst positive cells) × 100%. For cell viability assay, CCK8 was added to the well and incubated for 1 − 2 h and then OD450 was measured using a multi-mode microplate reader (Cytation5, BioTek).

[1] = test system: DSS-induced colitis in mice; test: DSS-induced acute colitis in WT mice, P2Y14R antagonist treatment (body weight, DAI, colon length, H&E, tight junction staining, TEM); format: in vivo, mouse; set-up: DAI: scale not given here; details: for Colitis symptoms: daily treatment, 3% DSS mice; for H&E staining: inflammatory infiltration and tissue damage / Tight junction protein expression (immunofluorescence) / Body weight loss and DAI vs DSS-exposed mice / Colon length vs mice treated with DSS only: high-dose, 20 μM; for Body weight loss and DAI vs DSS-exposed mice: daily
Source text: Male, 7-8-week-old, P2Y14R^fl/fl Vil-cre (P2Y14R^∆IEC), P2Y14R^fl/fl Lyz2-cre and WT mice with C57BL/6 J background were used to establish experimental (acute) colitis model. P2Y14R^fl/fl C57BL/6 J mice were used as control for P2Y14R^fl/fl Vil-cre (P2Y14R^∆IEC) and P2Y14R^fl/fl Lyz2-cre mice. WT C57BL/6 J mice were used for the pharmacological study of HDL-16. Colitis was induced by dextran sodium sulfate (DSS; 36-50 kDa; 3% w/v; MP Biomedicals, Solon, Ohio, USA), added to the drinking water ad libitum for 7 days. Control mice received standard drinking water. The Disease Activity Index (DAI) was evaluated daily as described previously. After 7 days of DSS treatment, mice were euthanized by carbon dioxide inhalation and the colons were measured and then processed for histological analyses, homogenized to extract protein or RNA.
The DSS group and the P2Y14R^△IEC + DSS group were rectally administered with 100 μl vehicle (saline with 0.1% DMSO). The low-dose group of mice was given 10 μM HDL-16, 100 μl per mouse, while the high-dose group was given 20 μM HDL-16, 100 μl per mouse.
For TEM, harvest fresh tissue blocks quickly within 1-3 minutes. […] Then tissues avoid light post fixed in 1% OsO4 in PBS for 2 h at room temperature. […] The samples were moved into a 65°C oven to polymerize for more than 48 h. Ultrathin sections were cut to 60-80 nm thin with an ultramicrotome UCT6 (Leica Microsystems, Vienna) and placed on 150 meshes cuprum grids (formvar carbon coated Cu grids) with formvar film. […] Micrographs were obtained with a Jeol JEM 1400 plus electron microscope (Jeol, USA) operating at 80 kV.
For histological assessment of colitis, colon specimens were fixed in 4% paraformaldehyde (PFA) and embedded in paraffin. Five-micrometer tissue sections were stained with H&E and examined for evidence of colitis as described previously. After the paraffin sections conventional dewaxing to water, put the sections into Hematoxylin solution for 3-5 min and treat the sections with Hematoxylin Differentiation solution. […] Finally, dehydrated the sections with gradient alcohol and xylene, and sealed with neutral gum. Images were captured with a microscope (BX53, Olympus).
Immunofluorescence staining was performed using paraffin-embedded tissues as mentioned before. For immunofluorescence, the paraffin slides were deparaffinized, rehydrated, blocked and treated according to a standard protocol. […] All slides were incubated with DAPI (S2110, Solarbio) for 10 min to show the location of the nucleus. Images were captured with a confocal microscope (LSM 800, Zeiss).

[2] = test system: MLKL, PKA, CREB phosphorylation; test: Immunoblotting of p-MLKL, p-PKA, p-CREB in colon tissues/IECs of DSS-treated mice; format: in vivo, mouse; details: for Activation of cAMP/PKA/CREB pathway (p-PKA, p-CREB): DSS-induced colitis mice; for Necroptosis of IECs (p-MLKL level and TEM imaging): high-dose, 20 μM, during DSS feeding
Experimental: The data represent the mean ± SD for c, e, and h–l, the data represent the mean ± SEM for b.
Colon tissues derived from the euthanized by carbon dioxide inhalation mice were opened longitudinally and washed in pre-cooling PBS for three times. Then, the tissues were cut into 3 mm^2 pieces and incubated with 5 mM EDTA solution in PBS on a constant temperature shaker at 200 rpm for 25 min at 37°C. Then, let it stand at room temperature for 30 seconds and collected the supernatant. Next, repeated the above process once. Supernatants from the above step were combined and centrifuged at 500 g for 8 min. Abandon the supernatants and obtain IECs.
Tissues and cells were lysed using RIPA lysis buffer (Beyotime Biotechnology) containing protease and phosphatase inhibitor, homogenated, and centrifuged. The protein concentration was determined by BCA protein assay (Beyotime Biotechnology). Equal concentrations of proteins were separated in a 10% SDS-PAGE and transferred to PVDF membrane. The membrane was blocked using 5% milk in TBST, probed with primary antibody, RIPK1 (17519-1-AP, Proteintech, 1:1000), MLKL (GTX107538-100, GeneTex, 1:1000), RIPK3 (17563-1-AP, Proteintech, 1:1000), p-MLKL (EPR9514, Abcam, 1:1000), PKA (bs-0520R, Bioss, 1:1000), p-PKA (#9621, Cell signaling, 1:1000), CREB (AF6188, Affinity, 1:1000), p-CREB (AF3189, Affinity, 1:1000), P2Y14R (bs-12028R, Bioss, 1:1000), GSDMD (ab209845, Abcam, 1:1000), Caspase1 p20 (bs-10442R, Bioss, 1:1000), Bcl-2 (bs-0032R, Bioss, 1:1000), Bax (AF0120, Affinity, 1:1000), Caspase-3 p-17 (Cell Signaling Technology, #9664, 1:1000), β-actin (bs-0061R, Bioss, 1:1000), GAPDH (BS-2188R, Bioss, 1:1000) and corresponding HRP-conjugated antibodies Goat Anti-Rabbit IgG H&L Antibody (bioss, Bs-0295G, 1:8000) or Goat Anti-Mouse IgG H&L Antibody (bioss, Bs-0296G, 1:8000). Densitometry was quantified using ImageJ software.

[3] = DSS-treated mice, group -H (high dose), Day 1
[4] = DSS-treated mice, group -L (low dose), Day 1
[5] = 100 μl per mouse, rectal, 3% DSS 7 days
[6] = DSS-treated mice, group -H (high dose), Figure 7h
[7] = DSS-treated mice, group -L (low dose), Figure 7h

Brc1ccc(NCc2nc3ccccc3o2)cc1 [HDL-16]
Necroptosis of HT-29 cells (PI staining) (HT-29 cells; TSZ-treated, pre-administrated with compound): inhibit the necroptosis
DAI [1, 3]: 0
Weight (%) [1, 3]: 95.5056% and 101.124% and 106.742%
Weight (%) ([1]; DSS-treated mice, group -H (high dose), Day 2): 95.5056% and 101.124% and 89.8876% and 106.742%
Weight (%) ([1]; DSS-treated mice, group -H (high dose), Day 3): 100% and 94.1176% and 94.4444% and 94.7368%
Weight (%) ([1]; DSS-treated mice, group -H (high dose), Day 4): 94.1176% and 88.2353% and 94.4444% and 88.8889% and 94.7368%
Weight (%) ([1]; DSS-treated mice, group -H (high dose), Day 5): 94.1176% and 88.2353% and 94.4444% and 83.3333% and 89.4737%
Weight (%) ([1]; DSS-treated mice, group -H (high dose), Day 6): 88.2353% and 82.3529% and 88.8889% and 83.3333% and 84.2105%
Weight (%) ([1]; DSS-treated mice, group -H (high dose), Day 7): 88.2353% and 82.3529% and 88.8889% and 77.7778% and 78.9474%
DAI [1, 4]: 0
Weight (%) [1, 4]: 100.935% and 95.3271% and 106.542%
Weight (%) ([1]; DSS-treated mice, group -L (low dose), Day 2): 100.935% and 95.3271% and 89.7196% and 106.542%
Weight (%) ([1]; DSS-treated mice, group -L (low dose), Day 3): 94.4444% and 94.1176% and 100%
Weight (%) ([1]; DSS-treated mice, group -L (low dose), Day 4): 100% and 94.4444% and 94.1176% and 94.7368%
Weight (%) ([1]; DSS-treated mice, group -L (low dose), Day 5): 100% and 94.4444% and 88.2353% and 89.4737% and 88.8889% and 94.1176%
Weight (%) ([1]; DSS-treated mice, group -L (low dose), Day 6): 100% and 94.4444% and 88.2353% and 89.4737%
Weight (%) ([1]; DSS-treated mice, group -L (low dose), Day 7): 94.4444% and 88.8889% and 94.1176% and 84.2105% and 88.2353%
Colitis symptoms [1]: significantly suppressed colitis symptoms
H&E staining: inflammatory infiltration and tissue damage ([1]; 100 μl per mouse): improved DSS-induced inflammatory infiltration and tissue damage
Tight junction protein expression (immunofluorescence) ([1]; 100 μl per mouse): stabilized the expression of tight junction protein Claudin-1, Occludin and ZO-1
Body weight loss and DAI vs DSS-exposed mice [1, 5]: dramatically less body weight loss and lower DAI
Colon length vs mice treated with DSS only [1, 5]: significantly longer
Comparison with the DSS-treated group (colitis parameters) ([1]; low-dose, 10 μM, 100 μl per mouse, rectal, 3% DSS 7 days): no significant difference
Activation of cAMP/PKA/CREB pathway (p-PKA, p-CREB) [2]: significantly increased the level of p-PKA and p-CREB; also recorded: upregulated the activation of the cAMP/PKA/CREB pathway
P-MLKL/MLKL [2, 6]: 1.521 and 1.265 and 1.621 and 1.356 and 1.5395
P-PKA/PKA [2, 6]: 1.707 and 1.759 and 1.709 and 1.416 and 2.236
p-CREB/CREB [2, 6]: 1.095 and 0.9798 and 1.543 and 0.8826 and 0.8002
P-MLKL/MLKL [2, 7]: 1.7141 and 1.386 and 1.7276 and 1.656 and 1.549
P-PKA/PKA [2, 7]: 1.542 and 1.79 and 2.009 and 1.5655 and 1.809
p-CREB/CREB [2, 7]: 0.8983 and 0.8748 and 1.433 and 0.9557 and 0.9121
P-MLKL/MLKL ([2]; P2Y14R△IEC mice + DSS + HDL-16-H (high dose), individual replicates): 1.288 and 1.248 and 1.394 and 1.076 and 1.4285
P-MLKL/MLKL ([2]; P2Y14R△IEC mice + DSS + HDL-16-L (low dose), individual replicates): 1.279 and 1.445 and 1.246 and 1.195 and 1.182
Necroptosis of IECs (p-MLKL level and TEM imaging) [2]: prominently suppression in necroptosis

O=C(O)c1cc(-c2ccc(C3CCNCC3)cc2)c2ccc(-c3ccc(C(F)(F)F)cc3)cc2c1 [PPTN, reference compound]
PI positive cell, PI intensity (%) (HT-29 cells; Figure 7k, TSZ-treated cells): 15.53% and 10.57% and 8.89%
DAI ([1]; DSS-treated mice, Day 1): 0
Weight (%) ([1]; DSS-treated mice, Day 1): 101.124% and 106.742% and 95.5056%
Weight (%) ([1]; DSS-treated mice, Day 2): 101.124% and 106.742% and 95.5056%
Weight (%) ([1]; DSS-treated mice, Day 3): 95.5056% and 106.742%
Weight (%) ([1]; DSS-treated mice, Day 4): 89.8876% and 101.124% and 95.5056%
Weight (%) ([1]; DSS-treated mice, Day 5): 89.8876% and 101.124% and 84.2697% and 95.5056%
Weight (%) ([1]; DSS-treated mice, Day 6): 84.2697% and 95.5056% and 89.8876%
Weight (%) ([1]; DSS-treated mice, Day 7): 89.8876% and 95.5056% and 84.2697%
Colon length (cm) ([1]; DSS-treated mice, Figure 7c): 6.3 cm and 7.4 cm and 5.5 cm and 5.9 cm and 6.7 cm and 7.1 cm
Colitis symptoms [1]: significantly suppressed colitis symptoms
H&E staining: inflammatory infiltration and tissue damage ([1]; 100 μl per mouse): improved DSS-induced inflammatory infiltration and tissue damage
Tight junction protein expression (immunofluorescence) ([1]; 100 μl per mouse): stabilized the expression of tight junction protein Claudin-1, Occludin and ZO-1
Body weight loss and DAI vs DSS-exposed mice [1, 5]: dramatically less body weight loss and lower DAI
Colon length vs mice treated with DSS only [1, 5]: significantly longer
Activation of cAMP/PKA/CREB pathway (p-PKA, p-CREB) [2]: significantly increased the level of p-PKA and p-CREB
P-MLKL/MLKL ([2]; DSS-treated mice, Figure 7h): 1.3877 and 1.2109 and 1.586 and 1.421 and 1.9357
P-PKA/PKA ([2]; DSS-treated mice, Figure 7h): 2.217 and 1.679 and 2.34 and 2.232 and 2.623
p-CREB/CREB ([2]; DSS-treated mice, Figure 7h): 0.8109 and 1.08 and 1.258 and 1.076 and 0.8633
P-MLKL/MLKL ([2]; P2Y14R△IEC mice + DSS + PPTN, individual replicates): 1.205 and 1.2332 and 1.252 and 1.224 and 1.39
Necroptosis of IECs (p-MLKL level and TEM imaging) [2]: prominently suppression in necroptosis
